Laboratory results taken from patent US8551742B2 (priority 2007, dated 2013).
Converted amounts (≈) assume the structure as drawn.

Key:
[1] = molecular target: T1, SAMe transporter from S. cerevisiae (Saccharomyces cerevisiae, UniProt Q08986); conditions: cited from earlier work
T1 sequence (Q08986 1-587): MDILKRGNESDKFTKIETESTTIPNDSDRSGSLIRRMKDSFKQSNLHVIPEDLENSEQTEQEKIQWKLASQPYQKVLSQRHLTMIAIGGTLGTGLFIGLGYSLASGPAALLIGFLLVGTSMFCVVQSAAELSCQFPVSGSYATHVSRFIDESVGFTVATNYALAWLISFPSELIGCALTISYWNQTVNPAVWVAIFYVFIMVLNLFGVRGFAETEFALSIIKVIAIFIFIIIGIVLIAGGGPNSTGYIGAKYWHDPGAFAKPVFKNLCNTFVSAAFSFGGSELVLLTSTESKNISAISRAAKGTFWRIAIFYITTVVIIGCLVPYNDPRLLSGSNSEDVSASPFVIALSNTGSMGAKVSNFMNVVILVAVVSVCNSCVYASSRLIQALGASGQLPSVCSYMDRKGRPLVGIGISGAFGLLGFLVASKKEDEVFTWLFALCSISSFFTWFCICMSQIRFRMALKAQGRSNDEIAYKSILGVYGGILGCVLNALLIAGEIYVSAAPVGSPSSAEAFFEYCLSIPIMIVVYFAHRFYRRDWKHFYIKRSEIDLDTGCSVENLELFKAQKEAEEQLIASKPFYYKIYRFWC

[2] = system: SAMe transporter from P. carnii; conditions: cited from earlier work
[3] = molecular target: Rickettsia high-affinity SAMe transport system (Rickettsia prowazekii, UniProt Q9ZE70); conditions: Rickettsia SAMe transporter; cited from earlier work
[4] = system: SAMe transporter from rat liver; conditions: cited from earlier work
[5] = system: homocysteine synthase encoded by metY from Pseudomonas aeruginosa; assay: Homocysteine synthase (MetY) activity assay (Yamagata, modified, DTNB detection)
physchem = conditions: 30 °C, water
Text: This is close to the highest concentration achievable in the assay conditions.

[6] = 30° C.; cited from earlier work
[7] = molecular target: high affinity L-methionine transporter (metD) (Escherichia coli, UniProt P28635); conditions: very high affinity transporter in E. coli; cited from earlier work
[8] = system: lower affinity L-methionine transporter (metP); conditions: lower affinity transporter in E. coli; cited from earlier work
MetK = MetK mutants radioactive assay in vitro ([methyl-14C]methionine to SAMe); type: biochemical, E. coli; conditions: 5 minute reaction time; C-terminal His tagged proteins unless untagged
Protocol: The metK gene from E. coli (Accession number AP—003499 or BAE77005) was cloned and overexpressed with either an N-terminal or a C-terminal His tag in pET28b vector. Site directed mutagenesis was performed using the C-terminal His tagged metK clone to generate the desired mutants. Expression of the mutant MetK proteins was confirmed.
The MetK mutants were purified (using the C-terminal His tag) and assayed in vitro. The wild type C-terminal His-tagged MetK protein was used as a control. The mutants were assayed using a radioactive assay. The assay conditions were as follows: • Assay Mix: • 1.0 mL 0.5 M HEPES/KOH, pH 8.0 • 0.5 mL 1.0 M KCl • 0.2 mL 1.0 M MgCl2 • 1.0 mL 100 mM ATP (disodium salt, pH 8.0 with KOH) • 0.1 mL 50 mM methionine • 0.1 mL NEN [methyl-^14C]methionine • 6.6 mL H2O • 25 mM EDTA pH 8.0 stop for assays.
45 μl of assay mix was added to an Eppendorf tube and 5 μL of enzyme (normalized data shown in Table 13. The reaction was incubated at room temperature (or 25° C.) for a desired period (1 to 10 minutes). The reaction was stopped with the addition of 150 μL of 25 mM EDTA. 100 μL of the reaction was spotted onto a 2.5 cm diameter Whatman P-81 phosphocellulose filter circle (labeled in pencil). The filters were washed with 3 L of distilled water, air-dried and placed in scintillation vials with aquasol. The emissions were counted using a window that extends from ^14C to about 0. Assay efficiency and quench levels were determined by adding a known amount of counts of pure ^14C-SAM and processing through the whole procedure. Backgrounds are typically<100 cpm (total counts ca. 10^5 cpm per reaction).

excreted Met = conditions: literature reference AEM 2005; cited from earlier work
O-succinylsulfhydrylase = molecular target: T2, O-succinylsulfhydrylase (Pseudomonas aeruginosa, UniProt P55218); assay: In-vitro assays of O-succinylsulfhydrylase; type: biochemical
T2 sequence (P55218 whole entry, looked up): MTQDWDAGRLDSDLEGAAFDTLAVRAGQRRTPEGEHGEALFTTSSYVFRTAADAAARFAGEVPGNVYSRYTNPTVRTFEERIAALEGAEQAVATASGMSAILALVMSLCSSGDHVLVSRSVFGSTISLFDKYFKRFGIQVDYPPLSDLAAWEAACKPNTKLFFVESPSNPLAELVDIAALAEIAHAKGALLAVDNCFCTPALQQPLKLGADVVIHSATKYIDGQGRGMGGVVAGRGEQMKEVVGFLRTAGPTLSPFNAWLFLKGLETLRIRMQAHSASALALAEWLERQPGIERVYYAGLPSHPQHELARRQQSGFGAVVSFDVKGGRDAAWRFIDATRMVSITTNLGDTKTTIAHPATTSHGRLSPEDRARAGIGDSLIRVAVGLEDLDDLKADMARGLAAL
Protocol: Low methionine production of the deletion mutants transformed with metZ may be due to the limitation of sulfide in the intracellular fraction (methods of increasing sulfide concentration are provided below). This is supported by the finding that the growth of the metBC deletion strain transformed with metZ was enhanced in M9 media in the presence of 2 mM sodium sulfide. […] Through directed evolution, it is possible to develop improved O-succinylsulfhydrylases with higher sulfide affinity and also higher activity.

[9] = OAHS as substrate, 10 mM inhibitor

Rickettsia high-affinity SAMe transport system, sequence (Q9ZE70 whole entry, looked up): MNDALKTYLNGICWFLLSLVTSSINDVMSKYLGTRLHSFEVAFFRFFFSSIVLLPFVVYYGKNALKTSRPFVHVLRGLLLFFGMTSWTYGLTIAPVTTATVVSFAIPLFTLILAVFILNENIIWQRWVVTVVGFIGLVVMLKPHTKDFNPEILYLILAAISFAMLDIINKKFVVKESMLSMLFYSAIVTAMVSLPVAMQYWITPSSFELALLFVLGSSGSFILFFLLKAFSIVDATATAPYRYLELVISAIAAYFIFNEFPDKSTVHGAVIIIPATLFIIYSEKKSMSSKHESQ
high affinity L-methionine transporter (metD), sequence (P28635 23-271): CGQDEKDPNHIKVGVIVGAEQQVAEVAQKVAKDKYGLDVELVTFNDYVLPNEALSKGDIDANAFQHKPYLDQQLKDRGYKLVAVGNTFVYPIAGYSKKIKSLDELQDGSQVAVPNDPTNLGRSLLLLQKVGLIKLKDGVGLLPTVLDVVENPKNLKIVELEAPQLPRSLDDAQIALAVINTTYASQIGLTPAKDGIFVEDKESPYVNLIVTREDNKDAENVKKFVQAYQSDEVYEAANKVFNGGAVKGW
high affinity L-methionine transporter (metD), sequence (P30750 whole entry, further chain): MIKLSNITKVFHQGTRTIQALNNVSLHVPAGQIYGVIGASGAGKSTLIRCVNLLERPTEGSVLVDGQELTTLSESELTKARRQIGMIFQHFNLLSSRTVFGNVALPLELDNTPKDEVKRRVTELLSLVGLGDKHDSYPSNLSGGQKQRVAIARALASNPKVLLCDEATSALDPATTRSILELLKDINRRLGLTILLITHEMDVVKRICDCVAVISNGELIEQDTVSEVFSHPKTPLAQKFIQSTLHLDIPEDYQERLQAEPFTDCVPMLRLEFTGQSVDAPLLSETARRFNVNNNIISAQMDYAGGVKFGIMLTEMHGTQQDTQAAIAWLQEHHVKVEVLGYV
high affinity L-methionine transporter (metD), sequence (P31547 whole entry, further chain): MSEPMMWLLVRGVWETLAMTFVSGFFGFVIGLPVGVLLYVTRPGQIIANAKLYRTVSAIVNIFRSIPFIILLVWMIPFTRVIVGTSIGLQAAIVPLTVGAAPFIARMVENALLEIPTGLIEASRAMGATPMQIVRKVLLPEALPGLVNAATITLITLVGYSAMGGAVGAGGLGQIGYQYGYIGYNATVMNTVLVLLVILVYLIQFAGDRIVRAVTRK

C[S+](CC[C@H](N)C(=O)O)C[C@H]1O[C@@H](n2cnc3c(N)ncnc32)[C@H](O)[C@@H]1O (stereo partly drawn) [SAMe, S-adenosylmethionine]
KT [1]: 3.3 µM
KT [2]: 4.5 µM
KT [3]: 2 to 8 µM
KT [4]: 8.9 µM
activity retained relative to absence of inhibitor ([5]; OAHS as substrate, 5 mM inhibitor): approximately 72%
activity retained relative to absence of inhibitor [5, 9]: ~21%
activity retained relative to absence of inhibitor ([5]; OSHS as substrate, 5 mM inhibitor): 86%
activity retained relative to absence of inhibitor ([5]; OSHS as substrate, 10 mM inhibitor): 19%

CSCC[C@H](N)C(=O)O [methionine]
solubility (physchem): 375000 µM (≈ 56 mg/mL)
solubility in water [6]: 5.6 g/100 mL
Km [7]: 0.1 to 0.13 µM
Km [8]: 20 to 40 µM
inhibition of MetY ([5]; 1 mM methionine): Some inhibition
activity retained relative to absence of inhibitor [5, 9]: about 50%
activity retained relative to absence of inhibitor ([5]; OAHS as substrate, 50 mM inhibitor): ~19%
activity retained relative to absence of inhibitor ([5]; OAHS as substrate, 100 mM inhibitor): ~9%
activity retained relative to absence of inhibitor ([5]; OSHS as substrate, 50 mM inhibitor): 53%
activity retained relative to absence of inhibitor ([5]; OSHS as substrate, 100 mM inhibitor): 31%

B1: Val 185 Glu: E. coli MetK mutant, C-terminal His tagged, purified (protein, UniProt P0A817 2-384, looked up, variant V185E)
S-adenosylmethionine synthase: AKHLFTSESVSEGHPDKIADQISDAVLDAILEQDPKARVACETYVKTGMVLVGGEITTSAWVDIEEITRNTVREIGYVHSDMGFDANSCAVLSAIGKQSPDINQGVDRADPLEQGAGDQGLMFGYATNETDVLMPAPITYAHRLVQRQAEVRKNGTLPWLRPDAKSQVTFQYDDGKIVGIDAVELSTQHSEEIDQKSLQEAVMEEIIKPILPAEWLTSATKFFINPTGRFVIGGPMGDCGLTGRKIIVDTYGGMARHGGGAFSGKDPSKVDRSAAYAARYVAKNIVAAGLADRCEIQVSYAIGVAEPTSIMVETFGTEKVPSEQLTLLVREFFDLRPYGLIQMLDLLHPIYKETAAYGHFGREHFPWEKTDKAQLLRDAAGLK
modifications: C-terminal His tag
notes: E. coli MetK mutant, C-terminal His tagged, purified
Activity (CPM SAMe/ μg purified protein/min) (MetK): 4.9 CPM SAMe/ μg purified protein/min
Expected Effect: increase in excreted Met over control (excreted Met): 6.4X increase in

B2: O-succinylsulfhydrylase: O-succinylsulfhydrylase (EC 4.2.99.-) codified by metZ from Pseudomonas aeruginosa (protein, UniProt P55218 1-403, looked up)
O-succinylhomoserine …: MTQDWDAGRLDSDLEGAAFDTLAVRAGQRRTPEGEHGEALFTTSSYVFRTAADAAARFAGEVPGNVYSRYTNPTVRTFEERIAALEGAEQAVATASGMSAILALVMSLCSSGDHVLVSRSVFGSTISLFDKYFKRFGIQVDYPPLSDLAAWEAACKPNTKLFFVESPSNPLAELVDIAALAEIAHAKGALLAVDNCFCTPALQQPLKLGADVVIHSATKYIDGQGRGMGGVVAGRGEQMKEVVGFLRTAGPTLSPFNAWLFLKGLETLRIRMQAHSASALALAEWLERQPGIERVYYAGLPSHPQHELARRQQSGFGAVVSFDVKGGRDAAWRFIDATRMVSITTNLGDTKTTIAHPATTSHGRLSPEDRARAGIGDSLIRVAVGLEDLDDLKADMARGLAAL
sulfide affinity (O-succinylsulfhydrylase): low sulfide affinity
